Reference: patent US20170240535A1, “HDAC1/2 INHIBITORS FOR THE TREATMENT OF NEURODEGENERATIVE AND/OR COGNITIVE DISORDERS” (Regenacy Pharmaceuticals, LLC, priority 2016, published 2017)
Entries after “also recorded” stand apart in the source; their conditions may differ.

What was measured:
aged mice = experiment: Morris Water Maze, young and aged mice; assay type: in vivo
Protocol: The ability of HDAC1/2 inhibitor Compound 1 to improve cognitive deficits in aged mice was tested by InterVivo Solutions (Toronto, Canada). Young (3 months old) and aged (18 months old) mice were compared in a Morris Water Maze to measure differences in learning and memory.
Mice were first placed in a pool of water and trained to swim to a visible flagged platform (the cued task). The mice received 3 trails per day for 5 days and the time it took for the mice to find the platform was timed. Young mice and aged mice performed equally well at this task, indicating there was no difference in swimming speed between the two cohorts of mice.
Next, mice were trained in a place task, in which the platform is submerged and hidden with flags to indicate the fixed location of the platform. The mice were trained for 4 days with 3 trials per day.

[1] = Pharmacokinetics in plasma and brain after IV administration; assay type: in vivo; conditions: IV 1 mg/kg, male C57BL/6 mice
Protocol: Male C57Bl/6 mice were fasted overnight. Compounds of the invention were dissolved in dimethyl acetamide at 10 times the final concentration, then Solutol HS 15 (BASF) was added to a final concentration of 10%. Finally 80% saline was added and vortexed to achieve a clear solution. Fifteen animals were injected via the tail vein with 1 mg/kg compound. Blood was collected via retro orbital puncture into K2EDTA tubes at 5 minutes, 15 minutes, 30 minutes, 1 hour, 2 hours, 4 hours, 8 hours and 24 hours after dosing. The blood was centrifuged at 2000 g for 5 minutes at 4° C. to obtain plasma. The plasma was extracted with acetonitrile and the level of compound was analyzed by LC/MS/MS. The level of compound in plasma was calculated from a standard curve in mouse plasma. For brain levels, animals were sacrificed at 5 minutes, 15 minutes, 1 hour, 4 hours and 24 hours. Brains were removed and homogenized in acetonitrile and extracted. The level of compound in brain was calculated from a standard curve in mouse brain tissue. The IV clearance and area under the curve were calculated using WinNonLin software. The ratio of area under the curve for plasma and brain samples was calculated to produce the brain/plasma ratio.

HDAC2 = target: T1, HDAC2 (Homo sapiens, UniProt Q92769); experiment: HDAC enzyme assay, HDAC2; assay type: biochemical; conditions: enzyme and compound incubated 24 hours at room temperature
T1 construct: purchased BPS Biosciences
Protocol: (§1) Compounds for testing were diluted in DMSO to 50 fold the final concentration and a ten point three fold dilution series was made. The compounds were diluted in assay buffer (50 mM HEPES, pH 7.4, 100 mM KCl, 0.001% Tween-20, 0.05% BSA, 20 μM TCEP) to 6 fold their final concentration. The HDAC enzymes (purchased from BPS Biosciences) were diluted to 1.5 fold their final concentration in assay buffer. The tripeptide substrate and trypsin at 0.05 μM final concentration were diluted in assay buffer at 6 fold their final concentration. The final enzyme concentrations used in these assays were 3.3 ng/ml (HDAC1), 0.2 ng/ml (HDAC2) and 0.08 ng/ml (HDAC3). The final substrate concentrations used were 16 μM (HDAC1), 10 μM (HDAC2) and 17 μM (HDAC3). Five μl of compound and 20 μl of enzyme were added to wells of a black, opaque 384 well plate in duplicate. Enzyme and compound were incubated together at room temperature for 24 hours. Five μl of substrate was added to each well, the plate was shaken for 60 seconds and placed into a Victor 2 microtiter plate reader. The development of fluorescence was monitored for 60 min and the linear rate of the reaction was calculated. The IC50 was determined using Graph Pad Prism by a four parameter curve fit.

HDAC1 = target: T2, HDAC1 (Homo sapiens, UniProt Q13547); experiment: HDAC enzyme assay, HDAC1; assay type: biochemical; conditions: enzyme and compound incubated 24 hours at room temperature
T2 construct: purchased BPS Biosciences
Protocol: as §1

HDAC3 = target: T3, HDAC3 (Homo sapiens, UniProt O15379); experiment: HDAC enzyme assay, HDAC3; assay type: biochemical; conditions: enzyme and compound incubated 24 hours at room temperature
T3 construct: purchased BPS Biosciences
Protocol: as §1

[2] = test system: APPSwDI/NOS2−/− transgenic mice; experiment: Radial arm water maze (RAWM) in APPSwDI/NOS2−/− model of Alzheimer's disease; assay type: in vivo; conditions: 10 mg/kg orally daily for 4 weeks; for RAWM escape latency / RAWM number of errors: vs vehicle treated transgenic / wild type
Protocol: The ability of HDAC1/2 inhibitor Compound 1 to improve cognitive deficits of APPSwDI/NOS2−/− transgenic mice was tested in the radial arm water maze (RAWM).
The Study was performed on APPSwDI/NOS2−/− transgenic (mouse model of Alzheimer's disease) as well as non-transgenic mice, bred at Charles River (Finland). Animals for the main study are 10.5 months old at start. A total number of 45 transgenic (divided into 22 untreated and 23 treated) and 25 non-transgenic controls are used for the study
Transgenic mice are allocated to two different treatment groups, either treated with vehicle (20% HP-β-CD in water) or Compound 1 (dosage 10 mg/kg) administered orally via gavage daily for 4 weeks total. The application volume is 10 ml/kg/dose whereby each animal is weighed once a week and receives a volume according to its individual actual weight.
Spatial learning capacities of all animals were tested in the Radial Arm Water Maze (RAWM). Briefly a six arm maze was submerged in a pool of water, and a platform was placed at the end of one arm. The mouse received 15 trials per day for 2 days and on each trial was started in a different arm while the arm containing the platform remained the same for each mouse. The first 10 trials were considered training and alternated between a visible and a hidden platform. The final trials for day 1 and all trials on day 2 were tested with a hidden platform. The number of errors (incorrect arm entries) were counted over a 1 min period. The errors were averaged over six trials resulting in 5 blocks for the 2 day period. Latency to find the platform was also recorded, and averaged similarly as the errors.

[3] = young mice (3 months old), 10 mg/kg/day, 4 weeks
[4] = APPSwDI/NOS2−/− mice, listed as compound 1, 10 mg/kg

T2 sequence (Q13547 whole entry): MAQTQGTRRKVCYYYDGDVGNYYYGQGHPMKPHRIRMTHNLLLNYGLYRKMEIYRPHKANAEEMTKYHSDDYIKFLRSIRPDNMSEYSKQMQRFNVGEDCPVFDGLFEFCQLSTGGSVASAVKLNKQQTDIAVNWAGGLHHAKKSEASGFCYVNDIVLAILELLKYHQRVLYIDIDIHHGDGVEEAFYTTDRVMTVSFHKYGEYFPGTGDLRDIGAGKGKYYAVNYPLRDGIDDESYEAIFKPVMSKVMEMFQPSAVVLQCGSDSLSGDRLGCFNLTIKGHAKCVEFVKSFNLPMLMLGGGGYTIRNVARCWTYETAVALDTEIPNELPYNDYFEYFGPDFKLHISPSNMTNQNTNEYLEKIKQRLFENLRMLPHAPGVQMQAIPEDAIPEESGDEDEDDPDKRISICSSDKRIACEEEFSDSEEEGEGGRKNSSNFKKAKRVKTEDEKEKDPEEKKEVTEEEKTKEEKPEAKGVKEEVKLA
T1 sequence (Q92769 whole entry): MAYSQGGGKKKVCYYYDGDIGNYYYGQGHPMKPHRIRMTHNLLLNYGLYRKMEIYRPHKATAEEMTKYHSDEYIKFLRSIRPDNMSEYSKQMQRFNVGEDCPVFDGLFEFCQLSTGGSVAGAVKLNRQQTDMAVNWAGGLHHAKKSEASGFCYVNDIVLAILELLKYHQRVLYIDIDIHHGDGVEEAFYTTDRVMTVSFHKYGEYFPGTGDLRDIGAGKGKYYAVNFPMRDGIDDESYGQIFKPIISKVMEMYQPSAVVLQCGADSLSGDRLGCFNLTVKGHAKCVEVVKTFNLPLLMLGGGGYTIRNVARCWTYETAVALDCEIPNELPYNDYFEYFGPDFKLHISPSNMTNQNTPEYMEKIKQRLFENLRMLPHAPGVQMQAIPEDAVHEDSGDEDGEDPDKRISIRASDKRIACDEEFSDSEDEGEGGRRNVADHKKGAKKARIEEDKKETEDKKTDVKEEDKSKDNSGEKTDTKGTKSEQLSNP
T3 sequence (O15379 whole entry): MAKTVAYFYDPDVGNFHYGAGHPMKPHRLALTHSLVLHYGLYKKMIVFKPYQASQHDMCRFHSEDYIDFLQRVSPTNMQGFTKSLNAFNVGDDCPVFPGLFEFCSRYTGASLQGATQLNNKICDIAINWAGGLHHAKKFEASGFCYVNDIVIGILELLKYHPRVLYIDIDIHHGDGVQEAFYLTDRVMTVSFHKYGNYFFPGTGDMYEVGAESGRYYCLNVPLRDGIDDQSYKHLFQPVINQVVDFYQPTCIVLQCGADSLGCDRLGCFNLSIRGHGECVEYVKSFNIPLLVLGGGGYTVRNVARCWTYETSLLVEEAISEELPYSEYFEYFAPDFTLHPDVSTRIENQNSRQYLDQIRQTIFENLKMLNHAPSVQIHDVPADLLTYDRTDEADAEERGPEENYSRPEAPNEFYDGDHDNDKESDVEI
T3 sequence (Q9Y618 395-489 partner limits assumed): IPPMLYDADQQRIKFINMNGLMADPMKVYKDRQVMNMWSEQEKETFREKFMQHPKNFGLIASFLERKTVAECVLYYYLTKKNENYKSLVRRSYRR

With `Nc1ccc(-c2ccccc2)cc1NC(=O)c1cc2ccc(N3CCNCC3)cc2cn1` [Compound 1] the “learning rate in place task” value (aged mice; aged mice (18 months old), 10 mg/kg/day, 4 weeks) was “learn at a rate greater than the young untreated cohort”, the “performance in place test vs corresponding untreated mice” value (aged mice; young and aged mice, 10 mg/kg/day for 4 weeks) was “perform better in the place test than the corresponding untreated mice” and the “learning rate in place task” value (aged mice; [3]) was “dramatic improvement in learning rate”. The “reduction in escape latency as compared to untreated mice, place task” value (aged mice; [3]) was 25%, the “brain penetrance (from brain/plasma AUC ratios)” value [1] was “highly brain penetrant” and the AUCINF ([1]; brain) was 12187 ng·h/g. For the same compound, the AUClast ([1]; brain) was 10505 ng·h/g, the Kp ([1]; mouse, brain/plasma, read-out: AUCbrain/AUCplasma) was 4.05 and the Cmax ([1]; mouse, brain) was 675 ng/g. The Tmax ([1]; mouse, brain) was 1 h, the half-life ([1]; mouse, brain) was 9.12 h and the AUC(0-inf) ([1]; mouse, plasma, PK cassette) was 3.01 µg·h/mL. For the same compound, the AUC(0-t) ([1]; mouse, plasma, PK cassette) was 2.68 µg·h/mL, the MRT inf ([1]; mouse, plasma, PK cassette) was 10.4 h and the clearance ([1]; mouse, plasma, PK cassette) was 0.333 L/h/kg. For the same compound, the half-life ([1]; mouse, plasma, PK cassette) was 7.8 h, the Vd ([1]; mouse, plasma, PK cassette, read-out: Vss) was 3.47 L/kg and the IC50 (HDAC2) was 13 nM. For the same compound, the IC50 (HDAC1) was 5 nM, the IC50 (HDAC3) was 84 nM and the tolerability ([2]; APPSwDI/NOS2−/− mice) was “very well tolerated in all animals”. The “learning behavior during training” value ([2]; APPSwDI/NOS2−/− mice, vs vehicle treated transgenic) was “significantly better learning behavior”, the RAWM escape latency ([2]; APPSwDI/NOS2−/− mice, 10 mg/kg) was “improved escape latency time; also recorded: reversed the increased latency” and the “RAWM number of errors” value ([2]; APPSwDI/NOS2−/− mice, 10 mg/kg) was “decrease in the number of errors; also recorded: reversed the increased latency and number of errors”. For the same compound, the RAWM escape latency [2, 4] was “not statistically different from wild type mice”, the “RAWM number of errors” value [2, 4] was “not statistically different from wild type mice” and the body weight ([2]; treatment groups) was “no differences in body weight”.
